Measurements from patent US12673924B2, “Valiolamine derivatives as glucosidase inhibitors” (Emergent Product Development Gaithersburg Inc., priority 2021, dated 2026).

These molecules were tested against T1, rat sucrase (Rattus norvegicus, UniProt P23739) (assay: Intestinal alpha-glucosidase assay, sucrose substrate). Conditions: alpha-glucosidase from intestinal rat powder.
T1 construct: partially purified alpha-glucosidase from intestinal rat powder; from tissue; host or cells: rat intestinal powder
T1 sequence (P23739 whole entry): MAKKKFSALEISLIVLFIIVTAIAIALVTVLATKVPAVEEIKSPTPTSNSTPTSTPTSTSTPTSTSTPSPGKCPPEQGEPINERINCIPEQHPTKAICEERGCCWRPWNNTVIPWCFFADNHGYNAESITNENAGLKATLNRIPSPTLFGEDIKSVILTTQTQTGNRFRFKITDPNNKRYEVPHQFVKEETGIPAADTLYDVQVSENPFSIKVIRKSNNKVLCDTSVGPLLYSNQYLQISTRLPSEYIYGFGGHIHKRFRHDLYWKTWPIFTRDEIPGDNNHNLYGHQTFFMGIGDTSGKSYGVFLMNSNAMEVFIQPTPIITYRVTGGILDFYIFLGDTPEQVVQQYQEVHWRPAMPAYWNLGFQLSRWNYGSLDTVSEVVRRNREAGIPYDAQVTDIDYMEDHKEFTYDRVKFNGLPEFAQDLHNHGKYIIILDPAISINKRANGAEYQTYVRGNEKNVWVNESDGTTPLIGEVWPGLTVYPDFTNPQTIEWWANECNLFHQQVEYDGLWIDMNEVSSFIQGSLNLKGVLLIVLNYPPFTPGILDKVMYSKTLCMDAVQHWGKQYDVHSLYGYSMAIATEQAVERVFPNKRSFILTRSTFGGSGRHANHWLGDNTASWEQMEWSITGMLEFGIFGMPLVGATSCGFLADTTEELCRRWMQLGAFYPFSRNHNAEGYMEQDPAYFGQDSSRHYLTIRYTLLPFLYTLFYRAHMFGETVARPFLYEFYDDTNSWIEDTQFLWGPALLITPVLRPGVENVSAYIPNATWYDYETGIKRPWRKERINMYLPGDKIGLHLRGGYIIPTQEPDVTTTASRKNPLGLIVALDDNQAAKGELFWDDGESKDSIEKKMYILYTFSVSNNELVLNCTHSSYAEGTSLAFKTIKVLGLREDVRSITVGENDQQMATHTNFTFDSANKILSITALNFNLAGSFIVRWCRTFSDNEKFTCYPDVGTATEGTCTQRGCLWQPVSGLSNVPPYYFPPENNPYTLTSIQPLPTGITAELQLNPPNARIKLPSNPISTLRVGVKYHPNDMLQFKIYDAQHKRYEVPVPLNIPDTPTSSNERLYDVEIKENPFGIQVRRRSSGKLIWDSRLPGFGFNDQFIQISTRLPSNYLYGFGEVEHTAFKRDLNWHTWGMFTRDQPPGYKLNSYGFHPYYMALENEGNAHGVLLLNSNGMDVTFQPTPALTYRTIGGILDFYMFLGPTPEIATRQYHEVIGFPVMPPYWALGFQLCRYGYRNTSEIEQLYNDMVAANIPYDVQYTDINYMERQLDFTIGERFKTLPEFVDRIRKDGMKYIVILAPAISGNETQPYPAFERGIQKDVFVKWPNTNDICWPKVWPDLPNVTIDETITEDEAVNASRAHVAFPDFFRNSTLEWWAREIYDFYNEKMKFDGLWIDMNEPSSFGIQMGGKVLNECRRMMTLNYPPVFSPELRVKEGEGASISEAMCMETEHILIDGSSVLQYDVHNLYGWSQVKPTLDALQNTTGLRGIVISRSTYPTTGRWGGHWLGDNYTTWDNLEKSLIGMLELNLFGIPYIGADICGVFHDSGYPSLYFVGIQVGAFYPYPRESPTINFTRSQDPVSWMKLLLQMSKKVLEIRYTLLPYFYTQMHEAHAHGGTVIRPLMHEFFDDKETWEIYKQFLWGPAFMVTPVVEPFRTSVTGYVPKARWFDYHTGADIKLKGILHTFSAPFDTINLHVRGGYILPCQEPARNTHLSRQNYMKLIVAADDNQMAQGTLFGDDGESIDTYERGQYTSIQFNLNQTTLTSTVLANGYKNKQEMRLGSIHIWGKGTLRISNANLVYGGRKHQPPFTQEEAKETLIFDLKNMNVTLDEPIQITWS
Type: biochemical
Description: Intestinal alpha-glucosidases (rat maltase and sucrase): Intestinal alpha-glucosidases act upon 1,4-alpha-glucoside bonds, breaking down disaccharides to glucose. To perform this assay, partially purified alpha-glucosidase from intestinal rat powder was incubated for 60 minutes at 37° C. with multiple dilutions of test compounds. Maltose or Sucrose respectively was then introduced as substrate to the mixture and incubated for 30 minutes at 37° C. The reaction was stopped by a 5-minute incubation at 90° C. and the resultant glucose production is detected using Sigma's Glucose GO Kit. Percent inhibition was then plotted as a function of concentration for each test compound. The IC50 was determined using a 4-PL curve fit and serves as the measure of relative inhibition of each test compound (see Table 4). Table 4 summarizes the results of IC50s for each molecule against each tested glucosidase enzyme.

First: N[C@H]1C[C@](O)(CO)[C@@H](O)[C@H](O)[C@H]1O [Valiolamine]
Second: O=C(O)CCCCN[C@H]1C[C@](O)(CO)[C@@H](O)[C@H](O)[C@H]1O [Compound 11, 5-(((1S,2S,3R,4S,5S)-2,3,4,5-tetrahydroxy-5-(hydroxymethyl)cyclohexyl)amino)pentanoic acid]
The IC50 of the first is 9.5-fold lower: 334 nM for the first, 3160 nM for the second.

Compared with `O=[N+]([O-])c1cc(-n2cnnn2)ccc1NCCCCCCN[C@H]1C[C@](O)(CO)[C@@H](O)[C@H](O)[C@H]1O` [Compound 4, (1S,2S,3R,4S,5S)-1-(hydroxymethyl)-5-((6-((2-nitro-4-(1H-tetrazol-1-yl)phenyl)amino)hexyl)amino)cyclohexane-1,2,3,4-tetraol], `O=[N+]([O-])c1cc(-n2ccnn2)ccc1NCCCCCCN[C@H]1C[C@](O)(CO)[C@@H](O)[C@H](O)[C@H]1O` [Compound 6, (1S,2S,3R,4S,5S)-1-(hydroxymethyl)-5-((6-((2-nitro-4-(1H-1,2,3-triazol-1-yl)phenyl)amino)hexyl)amino)cyclohexane-1,2,3,4-tetraol] is 43-fold lower in IC50: 2930 nM for the first, 67.4 nM for the second.

`[N-]=[N+]=Nc1ccc(NCCCCCN[C@H]2C[C@](O)(CO)[C@@H](O)[C@H](O)[C@H]2O)c([N+](=O)[O-])c1` [Compound 9, (1S,2S,3R,4S,5S)-5-((5-((4-azido-2-nitrophenyl)amino)pentyl)amino)-1-(hydroxymethyl)cyclohexane-1,2,3,4-tetraol] and `[N-]=[N+]=Nc1ccc(NCCCCCCN[C@H]2C[C@](O)(CO)[C@@H](O)[C@H](O)[C@H]2O)c([N+](=O)[O-])c1` [Compound 2, (1S,2S,3R,4S,5S)-5-((6-((4-azido-2-nitrophenyl)amino)hexyl)amino)-1-(hydroxymethyl)cyclohexane-1,2,3,4-tetraol] cannot be ordered by IC50: 11.2 nM for the first, under 33.3 nM for the second.

Compared with `O=[N+]([O-])c1cc(-n2nccn2)ccc1NCCCCCCN[C@H]1C[C@](O)(CO)[C@@H](O)[C@H](O)[C@H]1O` [Compound 5, (1S,2S,3R,4S,5S)-1-(hydroxymethyl)-5-((6-((2-nitro-4-(2H-1,2,3-triazol-2-yl)phenyl)amino)hexyl)amino)cyclohexane-1,2,3,4-tetraol], `COCCCCCCCCCN[C@H]1C[C@](O)(CO)[C@@H](O)[C@H](O)[C@H]1O` [Compound 3, (1S,2S,3R,4S,5S)-1-(hydroxymethyl)-5-((9-methoxynonyl)amino)cyclohexane-1,2,3,4-tetraol] is 3.4-fold higher in IC50: 34.2 nM for the first, 116 nM for the second. The first is the more potent here.
